Source: PMC7785020, “A unique hormonal recognition feature of the human glucagon-like peptide-2 receptor” (Cell Research, 2020)
Residue numbers refer to the chain shown, from its start. Where two headings read alike, the source gives them in different places. No end group written: not given here.

Tests used:
Format in all cases: cell-based
GLP-2R R242^ECL1E = molecular target: T1, GLP-2R R242^ECL1E (Homo sapiens, UniProt O95838, R242E); assay: cAMP accumulation, R242^ECL1E; parameters: WT (1–553); expressed in transfected cells; HEK 293T (cAMP); details: HEK 293T, 30 min, RT, mean ± SEM, n ≥ 3 in duplicate; for Emax: HEK-293T, read-out: cAMP Emax (% WT); for EC50: read-out: cAMP pEC50 (converted)
T1 sequence (O95838 1-553 R242E): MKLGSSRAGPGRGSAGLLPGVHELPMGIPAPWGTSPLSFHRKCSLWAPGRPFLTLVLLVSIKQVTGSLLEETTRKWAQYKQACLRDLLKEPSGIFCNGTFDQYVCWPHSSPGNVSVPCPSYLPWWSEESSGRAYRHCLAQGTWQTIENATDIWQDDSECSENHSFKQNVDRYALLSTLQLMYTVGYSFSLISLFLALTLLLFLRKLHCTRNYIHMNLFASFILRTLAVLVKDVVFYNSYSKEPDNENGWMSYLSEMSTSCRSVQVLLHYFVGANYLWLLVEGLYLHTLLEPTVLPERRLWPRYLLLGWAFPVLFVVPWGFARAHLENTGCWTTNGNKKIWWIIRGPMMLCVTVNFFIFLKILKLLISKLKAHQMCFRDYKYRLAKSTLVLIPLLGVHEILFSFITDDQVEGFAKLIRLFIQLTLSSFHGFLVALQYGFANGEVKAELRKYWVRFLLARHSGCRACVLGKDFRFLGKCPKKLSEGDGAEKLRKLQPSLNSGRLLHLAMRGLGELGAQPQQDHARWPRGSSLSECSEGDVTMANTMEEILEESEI
Description: (§1) They were seeded onto 6-well cell culture plates and transiently transfected with different GLP-2R constructs using Lipofectamine 2000 transfection reagent (Invitrogen, Carlsbad, CA, USA). After 24 h, the transfected cells were seeded onto 384-well microtiter plates (3000 cells per well) in HBSS supplemented with 5 mM HEPES, 0.1% (w/v) bovine serum albumin (BSA) and 0.5 mM 3-isobutyl-1- methylxanthine, and stimulated with increasing concentrations of GLP-2 for 30 min at RT. Eu and Ulight were diluted by cAMP detection buffer and added to the plates separately to terminate the reaction. Plates were incubated at RT for 60 min before measuring the fluorescence intensity at 620 nm and […] by an EnVision multilabel plate reader (PerkinElmer, Boston, USA).

GLP-2R (1-553) (WT) = molecular target: T2, GLP-2R (1-553) (WT) (Homo sapiens, UniProt O95838); assay: cAMP accumulation, WT GLP-2R; details: 30 min, RT, mean ± SEM, n ≥ 3 in duplicate; for Emax: HEK-293T; for EC50: HEK 293T, read-out: cAMP pEC50 (converted)
T2 construct: GLP-2R (1-553) (WT); expressed in transfected cells; host or cells: HEK 293T
T2 sequence (O95838 1-553): T1 sequence (O95838 1-553 R242E) with E242R
Description: as §1, with “HEK 293T cells were cultured in Dulbecco’s Modified Eagle’s Medium (DMEM) (Gibco, Waltham, USA) supplemented with 10% (v/v) fetal bovine serum (FBS) (Gibco) and 1% (v/v) sodium pyruvate (Gibco) at 37 °C, 5% CO2 in a humidified incubator. They” for “They”

GLP-2R Y252^ECL1A = molecular target: T3, GLP-2R Y252^ECL1A (Homo sapiens, UniProt O95838, Y252A); assay: cAMP accumulation, Y252^ECL1A; parameters: WT (1–553); expressed in transfected cells; HEK 293T (cAMP); details: HEK 293T, 30 min, RT, mean ± SEM, n ≥ 3 in duplicate; for Emax: HEK-293T, read-out: cAMP Emax (% WT); for EC50: read-out: cAMP pEC50 (converted)
T3 sequence (O95838 1-553 Y252A): T1 sequence (O95838 1-553 R242E) with E242R, Y252A
Description: as §1

| Compound | Emax (GLP-2R R242^ECL1E; Table S3, R242E) [%] | Emax (GLP-2R R242^ECL1E; Table S5, R242E) [%] | Emax (GLP-2R (1-553) (WT); Table S3, WT) [%] | Emax (GLP-2R (1-553) (WT); Table S4, WT) [%] | Emax (GLP-2R (1-553) (WT); Table S5, GLP-2R (WT)) [%] | Emax (GLP-2R Y252^ECL1A; Table S3, Y252A) [%] | Emax (GLP-2R Y252^ECL1A; Table S5, Y252A) [%] | EC50 (GLP-2R R242^ECL1E; Table S5, R242E) [nM] | EC50 (GLP-2R (1-553) (WT); Table S5, GLP-2R (WT)) [nM] | EC50 (GLP-2R Y252^ECL1A; Table S5, Y252A) [nM] |
| --- | --- | --- | --- | --- | --- | --- | --- | --- | --- | --- |
| CC[C@H](C)[C@H](NC(=O)[C@H](Cc1ccccc1)NC(=O)[C@H](CC(=O)O)NC(=O)[C@H](CCCNC(=N)N)NC(=O)[C@H](C)NC(=O)[C@H](C)NC(=O)[C@H](CC(C)C)NC(=O)[C@H](CC(N)=O)NC(=O)[C@H](CC(=O)O)NC(=O)[C@H](CC(C)C)NC(=O)[C@@H](NC(=O)[C@@H](NC(=O)[C@H](CC(N)=O)NC(=O)[C@H](CCSC)NC(=O)[C@H](CCC(=O)O)NC(=O)[C@H](CC(=O)O)NC(=O)[C@H](CO)NC(=O)[C@H](Cc1ccccc1)NC(=O)[C@H](CO)NC(=O)CNC(=O)[C@H](CC(=O)O)NC(=O)[C@H](C)NC(=O)[C@@H](N)Cc1c[nH]cn1)[C@@H](C)O)[C@@H](C)CC)C(=O)N[C@@H](CC(N)=O)C(=O)N[C@@H](Cc1c[nH]c2ccccc12)C(=O)N[C@@H](CC(C)C)C(=O)N[C@H](C(=O)N[C@@H](CCC(N)=O)C(=O)N[C@H](C(=O)N[C@@H](CCCCN)C(=O)N[C@H](C(=O)N[C@H](C(=O)N[C@@H](CC(=O)O)C(=O)O)[C@@H](C)O)[C@@H](C)CC)[C@@H](C)O)[C@@H](C)CC [Human GLP-2 (1–33)] | 108 ± 1.9 | 103 ± 2.3 | 101 ± 2.4 | 101 ± 2.9 | 103 ± 1.6 | 103 ± 2.6 | 102 ± 2.2 |  |  |  |
| HADGSFSDEMNTILDNLAAKEFIAWLVKGRG [Chimeric GLP-1/GLP-2 (20-33)] |  | 103 ± 3.5 |  |  | 104 ± 1.5 |  | 104 ± 2.1 | 5.01 | 0.126 | 3.98 |
| HADGSFTSDVSSYLEGQAARDFINWLIQTKITD [Chimeric GLP-1/GLP-2 (7-19)] |  | 108 ± 5.5 |  |  | 103 ± 2.6 |  | 106 ± 5.1 | 39.8 | 3.16 | 50.1 |
| HAEGTFSDEMNTILDNLAARDFINWLIQTKITD [Chimeric GLP-1/GLP-2 (1-6)] |  | 108 ± 3.2 |  |  | 103 ± 1.8 |  | 103 ± 3.1 | 25.1 | 0.158 | 6.31 |
